According to ChEMBL document CHEMBL1121741, “Acidic epinephrine analogues derived from 1H, 3H-2,1,3-benzothiadiazole 2,2-dioxide and from trifluoromethanesulfonanilide. A new synthesis of 1H,3H-2,1,3-benzothiadiazole 2,2-dioxide” (J Med Chem, 1981):

Columns and labels:
[1] = Acidity of compound was determined; format: ADME
[2] = Partition coefficient (logP); format: physicochemical; details: octanol/water
[3] = Acidity determined spectrometrically; format: ADME

Structure (SMILES) | pKa [1] | logP [2] | pKa [3]
O=S1(=O)Nc2ccccc2N1 | 5.26 | 1.12 | 
O=S(=O)(Nc1ccccc1)C(F)(F)F | 4.45 | 3.03 | 
CC(C)NCC(O)c1ccc2c(c1)NS(=O)(=O)N2 (stereo unspecified) |  |  | 4.68
CS(=O)(=O)Nc1ccccc1 | 8.85 | 0.95 | 
CC(C)(C)NCC(O)c1ccc2c(c1)NS(=O)(=O)N2 (stereo unspecified) |  |  | 4.7
O=S(=O)(CF)Nc1ccccc1 | 7.53 | 1.35 | 
Oc1cccc(O)c1 [RESORCINOL] | 9.5 | 0.85 | 
CC(C)NCC(O)c1cccc(NS(=O)(=O)C(F)(F)F)c1 (stereo unspecified) |  |  | 3.63
CC(C)NCC(O)c1ccc(NS(=O)(=O)C(F)(F)F)cc1 (stereo unspecified) |  |  | 3.65
CNCC(O)c1ccc2c(c1)NS(=O)(=O)N2 (stereo unspecified) |  |  | 4.67
NCC(O)c1ccc2c(c1)NS(=O)(=O)N2 (stereo unspecified) |  |  | 4.68
